Assay results: patent US20250241917A1, “SMALL MOLECULE ENHANCERS OF ANTISENSE OLIGO ACTIVITY” (Oregon State University, priority 2022, published 2025)

What was measured:
[1] = mice, intraperitoneal administration at 10 mg/kg; cited from earlier work
[2] = test system: HeLa pLuc/705 cells; assay: HeLa pLuc/705 assay (luciferase splice-correction readout of ASO activity with enhancer co-treatment); format: cell-based; details: for increase in 2′-MOE PS activity: 2′-MOE PS fixed at 2.5 μM; for increase in 2′-OMe PS activity: 2′-OMe PS fixed at 5 μM; for increase in PPMO activity: PPMO fixed at 5 μM; for enhancer concentration range that significantly enhances ASO activity on co-treatment of cells: cell culture co-treatment with ASO or macromolecule; for enhancing performance in screen of Selleck Chemicals FDA-approved drug library: primary screen 10 μM, secondary screen 0.1-20 μM; for enhancement of unmodified PMO activity: varied PMO concentration, enhancer fixed (febuxostat 2.5 μM; lonafarnib 250 nM), manual format (96 wells)
Text: The Hela pLuc/705 assay provides a positive readout of ASO's splice-modifying activity. Because messenger RNA (mRNA) splicing occurs in the cell's nucleus, the assay's output is indicative of the effectiveness of delivery of splice-modifying oligomers into the nucleus, which necessarily implies effective cytosolic delivery. The assay utilizes a genetically modified HeLa cell line that has been stably transfected with a gene containing coding sequence for a reporter enzyme (luciferase) and a mutated intron inserted within the coding sequence. The mutated intron cannot be properly excised resulting in an in-frame stop codon in the luciferase coding sequence, which prevents expression of functional luciferase. Two conditions must be met to produce the functional enzyme. First, an ASO must enter the cell nucleus to block the mutated splice site, thus restoring normal splicing and read through of the reporter message. The result is mRNA encoding functional reporter protein. Second, but equally important, the cells must be viable to carry out RNA processing and translation so that reporter protein activity is produced.
Correction through successful nuclear delivery of a splice-modifying ASO restores luciferase expression, which is then quantified by measurement of cell lysate luminescence with addition of luciferin substrate. This assay is a standard measure of intracellular ASO delivery within the field.
The HeLa pLuc/705 assay was miniaturized in order to allow it to be performed in […] cell culture plates, enabling the assay to be adapted to the high-throughput screening setting. The aim was to screen small molecules, with an emphasis on FDA-approved drugs, for ability to enhance ASO splice-modifying activity, which would be indicated by an increase in luminescence relative to cells treated with the ASO alone. In order to validate the approach, a positive control molecule was utilized which was already known to increase ASO activity when used alongside the ASO. Initially, a peptide intended for use in cell culture was used. Subsequently, febuxostat was used as a positive control.
The first screened compounds were the compounds in the Selleck Chemicals FDA-approved drug library for enhancing activity. This library contains 1430 compounds. Library compounds were dispensed to 10 μM in the plate wells. […] These sixteen compounds were evaluated for enhancing performance over the concentration range 0.1-20 μM. This enabled validation of the primary screening results, as well as to evaluate relative performance of hits through observation of concentration-dependent activity. Hits were evaluated based on relative enhancing performance, and they were also qualitatively evaluated for suitability for future therapeutic use, considering the identity, indication and approval status of the compound.
HeLa pLuc/705 cells were seeded into 384-well plates ([…] well volume) and incubated for 24 hours. At 24 hours, DMSO solutions of OAEs were added to subconfluent cells using an HP D300 Digital Dispenser, followed by addition of a testing ASO or DMSO. Cells were incubated for 24 hours. At 24 hours treatment time, growth medium was removed from the cells and […] of a lysis buffer/luciferin solution was added to each well. Luminescence was measured using a BioTek plate reader 5 minutes following addition of the lysis buffer/luciferin solution. Background luminescence values (generated using OAE only/DMSO-matched controls) were subtracted from experimental values. These methods apply to the commonly employed format for the assay using the HP D300 Digital Dispenser, with slight variations used for the high-throughput and manual formats.

[3] = degrades to tizoxanide; cited from earlier work
[4] = in vivo, po; cited from earlier work
[5] = varied ASO concentration, enhancer fixed (resveratrol 10 μM)

Compound | increase in 2′-OMe PS activity ([2]; enhancer at 10 μM) [fold] | enhancement of PPMO activity in screen of NIH Clinical Collection ([2]; PPMO) | increase in PPMO activity ([2]; enhancer at 10 μM) [fold] | enhancer concentration range that significantly enhances ASO activity on co-treatment of cells [2] [µM] | enhancing performance in screen of Selleck Chemicals FDA-approved drug library ([2]; PPMO) | enhancement of unmodified PMO activity [2] | further results
Nc1nc2ccc(Cl)cc2c2nc(-c3ccco3)nn12 [CGS-15943] | 3.2 | significant enhancement | 4 | 0.25 to 20 | – | – | adverse effects [1]: no reported adverse effects; increase in 2′-MOE PS activity ([2]; enhancer at 10 μM): 2.6 fold
Cc1nc(-c2ccc(OCC(C)C)c(C#N)c2)sc1C(=O)O [febuxostat] | 6.4 | – | 7.9 | 0.25 to 20 | strong performers | found to enhance the activity | increase in 2′-MOE PS activity ([2]; enhancer at 5 μM): 3 fold; result in screen of MicroSource Discovery Spectrum library ([2]; PPMO): strong hit
NC(=O)N1CCC(CC(=O)N2CCC([C@H]3c4ncc(Br)cc4CCc4cc(Cl)cc(Br)c43)CC2)CC1 [lonafarnib] | – | – | – | 0.1 to 20 | strong performers | found to enhance the activity | increase in 2′-MOE PS activity ([2]; enhancer at 250 nM): 2.1 fold; increase in 2′-OMe PS activity ([2]; enhancer at 250 nM): 3 fold; increase in PPMO activity ([2]; enhancer at 250 nM): 2.6 fold
CC(=O)Oc1ccccc1C(=O)Nc1ncc([N+](=O)[O-])s1 [nitazoxanide] | – | significant enhancement | – | 5 to 20 | – | – | degradation in human plasma [3]: degrade very rapidly
Oc1ccc(/C=C/c2cc(O)cc(O)c2)cc1 [resveratrol] | 1.5 | – | 2.1 | 1 to 20 | found to be an OAE | – | maximum plasma concentration [4]: 2.4 µM; enhancement of 2′-MOE PS activity ([2]; fixed ASO concentration, varied enhancer concentration): did not show enhancement; enhancement of 2′-MOE PS ASO activity [2, 5]: did show enhancement; enhancement of 2′-OMe PS ASO activity [2, 5]: failed to enhance activity
